{
  "source": "patent US7232904B2",
  "about": "“Crystal of arylethenesulfonamide derivative and preparation process thereof” (Astellas Pharma Inc., priority 2001, dated 2007)",
  "key": {"[1]": {"assay": "hygroscopicity of crystals (FIGS. 10 to 12)", "format": "physicochemical", "conditions": "for moisture absorbed / moisture absorbed, corresponding moles of water: extent of moisture absorption with increase of humidity; for humidity above which moisture is absorbed: humidity exceeded before moisture absorption", "excerpt": "Also, FIGS. 10 to 12 show the hygroscopicity of the three kinds of novel crystals of the potassium salt of Compound A of the invention."}, "[2]": {"assay": "heat stability of crystals", "format": "physicochemical", "conditions": "high melting point"}, "[3]": {"assay": "preservation stability in a reagent bottle", "format": "physicochemical", "conditions": "normal temperature, atmospheric pressure", "excerpt": "Additionally, the α-type crystal, β-type crystal and γ-type crystal of the potassium salt of Compound A of the invention are morphologically pure. […] Moreover, since it is hardly electrified and is excellent in fluidity, it has advantages such that works are easy in adjusting solid formulations such as powders, granules, tablets, and capsules."}, "[4]": {"system": "ET receptors, particularly an ETA receptor", "conditions": "competitively inhibits binding to ET receptors; cited from earlier work"}, "[5]": {"conditions": "listed as β-type crystal of the potassium salt of Compound A"}, "[6]": {"conditions": "listed as α-type crystal of the potassium salt of Compound A"}, "[7]": {"conditions": "listed as γ-type crystal of the potassium salt of Compound A"}},
  "data": [
    {"compound": "COc1ccccc1Oc1c(NS(=O)(=O)/C=C/c2ccccc2)nc(-c2ncccn2)nc1OC.[K]", "note": "[β-type crystal]", "values": [
      {"measurement": "moisture absorbed", "setting": "[1]; [5]", "value": "about 4%"},
      {"measurement": "moisture absorbed, corresponding moles of water", "setting": "[1]; [5]", "value": "1.2 moles of water"},
      {"measurement": "humidity above which moisture is absorbed", "setting": "[1]; [5]", "value": "exceeded 45%"},
      {"measurement": "heat stability (in words)", "setting": "[2]", "value": "excellent in heat stability"}
    ]},
    {"compound": "COc1ccccc1Oc1c(NS(=O)(=O)/C=C/c2ccccc2)nc(-c2ncccn2)nc1OC.[K]", "note": "[α-type crystal]", "values": [
      {"measurement": "moisture absorbed", "setting": "[1]; [6]", "value": "about 6%"},
      {"measurement": "moisture absorbed, corresponding moles of water", "setting": "[1]; [6]", "value": "1.8 moles of water"},
      {"measurement": "humidity above which moisture is absorbed", "setting": "[1]; [6]", "value": "exceeded 65%"},
      {"measurement": "stable in the preservation state", "setting": "[3]", "value": "over 2 years"}
    ]},
    {"compound": "COc1ccccc1Oc1c(NS(=O)(=O)/C=C/c2ccccc2)nc(-c2ncccn2)nc1OC.[K]", "note": "[potassium salt of Compound A]", "values": [
      {"measurement": "affinity with ET receptors", "setting": "[4]", "value": "high affinity"}
    ]},
    {"compound": "COc1ccccc1Oc1c(NS(=O)(=O)/C=C/c2ccccc2)nc(-c2ncccn2)nc1OC.[K]", "note": "[γ-type crystal]", "values": [
      {"measurement": "moisture absorbed", "setting": "[1]; [7]", "value": "about 1%"},
      {"measurement": "moisture absorbed, corresponding moles of water", "setting": "[1]; [7]", "value": "0.3 moles of water"},
      {"measurement": "heat stability (in words)", "setting": "[2]", "value": "excellent in heat stability"}
    ]}
  ]
}
